Experiment: Inhibition of PARP1 in human A549 cells assessed as potentiation of TMZ-mediated cytotoxicity by measuring TMZ IC50 for growth inhibition at 0.5 uM by SRB assay (Rvb TMZ IC50 = 295 uM)
`C[C@]1(c2nc3c(C(N)=O)c(F)ccc3[nH]2)CCCN1` showed an IC50 of 338 µM.
In the case of `NC(=O)c1c(F)ccc2[nH]c(-c3ccc(N4CCOCC4)cc3)nc12`, the IC50 is reported as 130 µM.
`CCCN1CCC(c2nc3c(C(N)=O)c(F)ccc3[nH]2)CC1` gave an IC50 of 152 µM.
In the case of `NC(=O)c1c(F)ccc2[nH]c(-c3ccc(N4CCNCC4)cc3)nc12`, the IC50 is reported as 188 µM.
In the case of `CN1CCC[C@@]1(C)c1nc2c(C(N)=O)c(F)ccc2[nH]1`, the IC50 is reported as 310 µM.
Work on `NC(=O)c1c(F)ccc2[nH]c(C3CCNCC3)nc12` yielded an IC50 of 354 µM.

Reference: BindingDB's records for doi:10.1016/j.bmcl.2016.06.045 (China Pharmaceutical University, 2016)
